{"source": "patent US20200281949A1", "about": "“METHODS FOR TREATING CASTRATION-RESISTANT AND CASTRATION-SENSITIVE PROSTATE CANCER” (TOLERO PHARMACEUTICALS, INC., priority 2018, published 2020)", "key": {"[1]": {"assay": "Phase I dose-escalation study in patients with advanced solid tumors: safety", "assay_type": "in vivo, human", "text": "Patients with advanced metastatic or progressive solid tumors who were refractory to, or intolerant of, established therapy known to provide clinical benefit for their condition were enrolled. Cohorts of 3-6 patients each received escalating doses of compound of structure (I) using a modified Fibonacci dose escalation approach. Once the optimal dose has been established, additional patients may be enrolled to confirm safety and to explore efficacy. Twenty additional patients will be enrolled in an expansion cohort at the maximum tolerated dose (MTD).\nThis is an ongoing Phase 1, open-label, dose-escalation, safety, PK and PD study. The proposed starting dose and schedule for oral compound of structure (I) was a 1-mg flat dose once daily (QD) for 14 days followed by a 7-day drug-free recovery period (each cycle=21 days). In the absence of dose-limiting toxicities (DLTs) in the first cohort of at least 3 patients, the dose was increased using a modified Fibonacci dose escalation scheme, and BID dosing commenced according to the dose escalation schedule described in Table 8. The first patient in cohort 6 has been enrolled at 8 mg compound of structure (I) BID. The baseline demographics of the first 14 patients enrolled in the study are described in Table 6.\nDLT was defined as any one of the following events observed in cycle 1, regardless of investigator attribution, unless there was a clear alternative explanation: • 1. Grade 3 or greater febrile neutropenia • 2. Grade 4 neutropenia for ≥7 consecutive days • 3. Grade 4 thrombocytopenia or Grade 3 thrombocytopenia with clinically significant bleeding or that requires a platelet transfusion • 4. Grade 3 or 4 nonhematologic AEs will be considered dose limiting, regardless of duration aside from the specific parameters described herein • 5. Grade 4 nausea, vomiting, or diarrhea, regardless of duration • 6. Dosing delays≥1 week due to treatment-emergent adverse events (TEAEs) or related severe laboratory test values • 7. Any AST and ALT elevation>3× ULN (if baseline value was normal) or ≥3× the baseline value (if baseline value was abnormal) accompanied by serum bilirubin levels>2×ULN • 8. […] Any Grade≥3 elevations in creatinine • 10. Any Grade 5 toxicity"}, "[2]": {"tested_on": "subcutaneous 22Rv1 human prostate cancer xenograft", "assay": "Efficacy study in the 22Rv1 xenograft prostate cancer model", "assay_type": "in vivo, male BALB/c nude mice", "conditions": "castrated mice, 21 days; doses per Table 1: Cmpd Str (I) 1.25 mg/kg p.o. BID or 10 mg/kg p.o. Q7D; enzalutamide 30 mg/kg p.o. QD; docetaxel 10 mg/kg i.p. Q7D; ABT199 100 mg/kg p.o. QD", "experimental": "The objective of this study was to evaluate the in vivo therapeutic efficacy of the compound of structure (I) or a pharmaceutically acceptable salt or zwitterionic form thereof in the treatment of a subcutaneous 22Rv1 human prostate cancer xenograft model. For the 22Rv1 model, efficacy of the compound of structure (I) was evaluated in male BALB/c nude mice. Cobalt-60 irradiation of all mice was performed 2 days before the tumor inoculation at 2 Gy (1 Gy=100 rads). Each mouse was inoculated at the right flank with 1×10^7 tumor cells in 0.1 ml of PBS mixed with matrigel (1:1). The date of tumor cell inoculation was denoted as day 0.\nCastration was performed when mean tumor volume reached approximately 200 mm^3. Mice were anesthetized with ketamine/xylazine; surgical castration was performed via a midline scrotal incision allowing bilateral access to the hemiscrotal contents; after exposing each testicle, a 6-0 Vicryl suture was used to ligate the spermatic cord and then remove the testicle; the scrota and skin was then closed with 6-0 Vicryl suture, separately. Treatments started when the mean tumor volume re-grew to approximately 100 mm^3.\nAfter tumors reached the appropriate size, approximately 100-200 mm^3, mice were randomized into treatment groups 1-11, which are shown in Table 1. Each treatment was administered starting on day 15, at a dosing volume of 5 μL/g and continued for 21 days (or 22 days for groups with treatment at Q7D). For groups with treatment at Q7D×3 weeks, dosing was performed on days 1, 8, and 15 post-randomization, and the study was terminated on day 22 post randomization. The combined treatment intervals were each 0 h, and the interval for BID was 8 h. Randomization was performed based on the “Matched distribution” method (StudyDirector™ software, version 3.1.399.19) randomized block design.\nTumor volumes were measured twice per week after randomization in two dimensions using a caliper, and the volume was expressed in mm^3 using the formula: “V=(L×W×W)/2,” where V is tumor volume, L is tumor length (the longest tumor dimension) and W is tumor width (the longest tumor dimension perpendicular to L). The average tumor volume for each group, as a percentage of the average tumor volume of the control group (group 1), is shown in FIG. 6. […] The percentage shown in FIG. 7 (% T/C) is calculated as mean(T)/mean(C)*100%, with “T” representing tumor volume and “C” representing tumor volume for group 1.\nT and C are the mean tumor volume (or weight) of the treated groups and control group (group 1), respectively, on a given day. The percentages shown in FIG. 10 are calculated as % ΔT/C=(mean(T)−mean(T0))/(mean(C)−mean(C0))*100%, with “0” indicating the initial timepoint."}, "[3]": {"tested_on": "PC-3 prostate tumor xenograft", "assay": "Tumor growth in PC-3 mouse xenograft model", "assay_type": "in vivo", "conditions": "oral gavage 1.25 mg/kg BID x 21 days, or 7.5 or 15 mg/kg q7d x 3", "experimental": "The effects of the compound of structure (I) on tumor growth in the PC-3 mouse xenograft model were also assessed. PC-3 prostate tumor cells were maintained in vitro as a monolayer culture in Ham's F12K medium supplemented with 10% fetal bovine serum at 37° C. in an atmosphere of 5% CO2 in air. The cells in an exponential growth phase were harvested and counted for tumor inoculation. Each mouse was inoculated subcutaneously at the right flank region with PC-3 prostate tumor cells (5×10^6 cells) in 0.1 ml of PBS for tumor development. When the mean tumor size reached approximately 100 mm^3, the mice were randomized and divided into study groups. Compound of structure (I) was administered at 1.25 mg/kg twice daily (BID) for 21 days, or 7.5 mg/kg or 15 mg/kg once weekly (q7d×3) by oral gavage. Tumor volumes were measured twice weekly in two dimensions using a caliper, and the volume expressed in mm^3 using the formula: V=(L×W×W)/2, where V is tumor volume, L is tumor length (the longest tumor dimension) and W is tumor width (the longest tumor dimension perpendicular to L)."}, "[4]": {"assay": "Phase I dose-escalation study in patients with advanced solid tumors: plasma PK", "assay_type": "in vivo, human", "conditions": "any timepoint", "experimental": "Plasma PK parameters of compound of structure (I) and alvocidib were evaluated in Cohorts 1-5 at specific timepoints during the study. Blood was collected from patients in Cohorts 1-5 according to the pharmacokinetic sampling schedule described in Table 9.\nPK parameters were estimated using standard noncompartmental methods. Actual sample collection times were used rather than scheduled collection times. Plasma concentrations below the limit of quantification were treated as 0. Imbedded missing plasma concentrations (e.g., missing values between two observed values) were estimated using linear […]. This is consistent with using the trapezoidal rule to calculate AUC. Other missing plasma concentrations were excluded from calculations to estimate PK parameters."}, "[5]": {"conditions": "patients, oral, Cohorts 1-5 (1 mg QD to 6 mg BID), to date"}}, "data": [{"compound": "CN1CC[C@H](c2c(OP(=O)(O)O)cc(O)c3c(=O)cc(-c4ccccc4Cl)oc23)[C@H](O)C1", "note": "[compound of structure (I)]", "values": [{"measurement": "Treatment-emergent adverse events, Grade 3: Anemia", "setting": "[1]; number of patients (%), N = 14", "result": "1 (7%)"}, {"measurement": "Treatment-emergent adverse events, Grade 3: Chest Pain", "setting": "[1]; number of patients (%), N = 14", "result": "1 (7%)"}, {"measurement": "Treatment-emergent adverse events, Grade 3: Haematuria", "setting": "[1]; number of patients (%), N = 14", "result": "1 (7%)"}, {"measurement": "Treatment-emergent adverse events, Grade 3: Hypotension", "setting": "[1]; number of patients (%), N = 14", "result": "1 (7%)"}, {"measurement": "Treatment-emergent adverse events, Grade 3: Hypoxia", "setting": "[1]; number of patients (%), N = 14", "result": "1 (7%)"}, {"measurement": "Treatment-emergent adverse events, Grade 3: Malignant Pleural Effusion", "setting": "[1]; number of patients (%), N = 14", "result": "1 (7%)"}, {"measurement": "Treatment-emergent adverse events, Grade 3: Pain", "setting": "[1]; number of patients (%), N = 14", "result": "1 (7%)"}, {"measurement": "Treatment-emergent adverse events, Grade 3: Swelling", "setting": "[1]; number of patients (%), N = 14", "result": "1 (7%)"}, {"measurement": "dose-limiting diarrhea or neutropenia", "setting": "[1]; [5]", "result": "no evidence of dose-limiting diarrhea or neutropenia"}, {"measurement": "unexplained toxicity", "setting": "[1]; [5]", "result": "no unexplained toxicity"}, {"measurement": "anti-cancer activity in the 22Rv1 xenograft model (tumor growth)", "setting": "[2]", "result": "modest activity"}, {"measurement": "tumor growth in PC-3 mouse xenograft model", "setting": "[3]", "result": "inhibited tumor growth"}, {"measurement": "detection of compound of structure (I) in plasma", "setting": "[4]; Cohort 2, 1 mg BID oral, any sample", "result": "no compound of structure (I) was detected"}, {"measurement": "detectable compound of structure (I) in plasma", "setting": "[4]; across cohorts (FIGS. 24G, 24H), oral Formulation No. 401-01", "result": "no detectable compound of structure (I)"}]}]}
